Test results published in the kinase profiling compilation of Christmann-Franck et al. (2016).

What was measured:
PIM1 (human) [1] = biological target: PIM1 (human) (UniProt P11309); test: SelectScreen, TR FRET
PIM2 (human) [2] = biological target: PIM2 (human) (UniProt Q9P1W9); test: SelectScreen, TR FRET
[3] = biological target: TYK2 JH2 pseudokinase (human) (UniProt P29597); test: KINOMEscan competition binding; conditions: compound 10.0 µM
EGFR (human) = EGFR (human) (UniProt P00533); test: KINOMEscan competition binding; conditions: compound 10.0 µM
PIK3CG (human) = PIK3CG (human) (UniProt P48736); test: KINOMEscan competition binding; conditions: compound 10.0 µM
RIPK2 (human) = RIPK2 (human) (UniProt O43353); test: KINOMEscan competition binding; conditions: compound 10.0 µM
[4] = test system: EGFR (human), P00533 [752-759 del]; test: KINOMEscan competition binding; conditions: compound 10.0 µM
CIT (human) = CIT (human) (UniProt O14578); test: KINOMEscan competition binding; conditions: compound 10.0 µM
ACVR2B (human) = ACVR2B (human) (UniProt Q13705); test: KINOMEscan competition binding; conditions: compound 10.0 µM
TIE1 (human) = TIE1 (human) (UniProt P35590); test: KINOMEscan competition binding; conditions: compound 10.0 µM
[5] = test system: EGFR (human), P00533 [747-751 del / S ins]; test: KINOMEscan competition binding; conditions: compound 10.0 µM
HIPK1 (human) = HIPK1 (human) (UniProt Q86Z02); test: KINOMEscan competition binding; conditions: compound 10.0 µM
AAK1 (human) = AAK1 (human) (UniProt Q2M2I8); test: KINOMEscan competition binding; conditions: compound 10.0 µM
TAOK1 (human) = TAOK1 (human) (UniProt Q7L7X3); test: KINOMEscan competition binding; conditions: compound 10.0 µM
MYLK4 (human) = MYLK4 (human) (UniProt Q86YV6); test: KINOMEscan competition binding; conditions: compound 10.0 µM
DAPK3 (human) = DAPK3 (human) (UniProt O43293); test: KINOMEscan competition binding; conditions: compound 10.0 µM
Chain of DAPK3 (human) (O43293 whole entry, looked up): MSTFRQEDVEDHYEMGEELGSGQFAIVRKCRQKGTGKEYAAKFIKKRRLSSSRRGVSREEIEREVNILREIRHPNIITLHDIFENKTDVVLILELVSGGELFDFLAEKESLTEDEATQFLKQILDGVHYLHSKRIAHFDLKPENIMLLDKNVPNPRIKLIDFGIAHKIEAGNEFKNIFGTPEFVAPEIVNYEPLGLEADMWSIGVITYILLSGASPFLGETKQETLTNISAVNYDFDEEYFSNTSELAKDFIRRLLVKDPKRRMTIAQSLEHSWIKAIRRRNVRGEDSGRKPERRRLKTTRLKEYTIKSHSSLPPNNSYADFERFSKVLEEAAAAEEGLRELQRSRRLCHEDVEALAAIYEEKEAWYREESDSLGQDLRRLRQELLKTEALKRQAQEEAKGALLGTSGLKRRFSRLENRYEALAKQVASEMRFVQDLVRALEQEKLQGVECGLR

CSNK2A1 (human) = CSNK2A1 (human) (UniProt P68400); test: KINOMEscan competition binding; conditions: compound 10.0 µM
PIM1 (human) [6] = biological target: PIM1 (human) (UniProt P11309); test: KINOMEscan competition binding; conditions: compound 10.0 µM
PIK3CD (human) = PIK3CD (human) (UniProt O00329); test: KINOMEscan competition binding; conditions: compound 10.0 µM
STK17B (human) = STK17B (human) (UniProt O94768); test: KINOMEscan competition binding; conditions: compound 10.0 µM
RPS6KA4 KD2 (human) = RPS6KA4 KD2 (human) (UniProt O75676); test: KINOMEscan competition binding; conditions: compound 10.0 µM
STK17A (human) = STK17A (human) (UniProt Q9UEE5); test: KINOMEscan competition binding; conditions: compound 10.0 µM
BMPR2 (human) = BMPR2 (human) (UniProt Q13873); test: KINOMEscan competition binding; conditions: compound 10.0 µM
[7] = test system: EGFR (human), P00533 [A750P; 747-749 del]; test: KINOMEscan competition binding; conditions: compound 10.0 µM
CSNK2A2 (human) = CSNK2A2 (human) (UniProt P19784); test: KINOMEscan competition binding; conditions: compound 10.0 µM
CLK2 (human) = CLK2 (human) (UniProt P49760); test: KINOMEscan competition binding; conditions: compound 10.0 µM
MYLK3 (human) = MYLK3 (human) (UniProt Q32MK0); test: KINOMEscan competition binding; conditions: compound 10.0 µM
GAK (human) = GAK (human) (UniProt O14976); test: KINOMEscan competition binding; conditions: compound 10.0 µM
Chain of GAK (human) (O14976 whole entry, looked up): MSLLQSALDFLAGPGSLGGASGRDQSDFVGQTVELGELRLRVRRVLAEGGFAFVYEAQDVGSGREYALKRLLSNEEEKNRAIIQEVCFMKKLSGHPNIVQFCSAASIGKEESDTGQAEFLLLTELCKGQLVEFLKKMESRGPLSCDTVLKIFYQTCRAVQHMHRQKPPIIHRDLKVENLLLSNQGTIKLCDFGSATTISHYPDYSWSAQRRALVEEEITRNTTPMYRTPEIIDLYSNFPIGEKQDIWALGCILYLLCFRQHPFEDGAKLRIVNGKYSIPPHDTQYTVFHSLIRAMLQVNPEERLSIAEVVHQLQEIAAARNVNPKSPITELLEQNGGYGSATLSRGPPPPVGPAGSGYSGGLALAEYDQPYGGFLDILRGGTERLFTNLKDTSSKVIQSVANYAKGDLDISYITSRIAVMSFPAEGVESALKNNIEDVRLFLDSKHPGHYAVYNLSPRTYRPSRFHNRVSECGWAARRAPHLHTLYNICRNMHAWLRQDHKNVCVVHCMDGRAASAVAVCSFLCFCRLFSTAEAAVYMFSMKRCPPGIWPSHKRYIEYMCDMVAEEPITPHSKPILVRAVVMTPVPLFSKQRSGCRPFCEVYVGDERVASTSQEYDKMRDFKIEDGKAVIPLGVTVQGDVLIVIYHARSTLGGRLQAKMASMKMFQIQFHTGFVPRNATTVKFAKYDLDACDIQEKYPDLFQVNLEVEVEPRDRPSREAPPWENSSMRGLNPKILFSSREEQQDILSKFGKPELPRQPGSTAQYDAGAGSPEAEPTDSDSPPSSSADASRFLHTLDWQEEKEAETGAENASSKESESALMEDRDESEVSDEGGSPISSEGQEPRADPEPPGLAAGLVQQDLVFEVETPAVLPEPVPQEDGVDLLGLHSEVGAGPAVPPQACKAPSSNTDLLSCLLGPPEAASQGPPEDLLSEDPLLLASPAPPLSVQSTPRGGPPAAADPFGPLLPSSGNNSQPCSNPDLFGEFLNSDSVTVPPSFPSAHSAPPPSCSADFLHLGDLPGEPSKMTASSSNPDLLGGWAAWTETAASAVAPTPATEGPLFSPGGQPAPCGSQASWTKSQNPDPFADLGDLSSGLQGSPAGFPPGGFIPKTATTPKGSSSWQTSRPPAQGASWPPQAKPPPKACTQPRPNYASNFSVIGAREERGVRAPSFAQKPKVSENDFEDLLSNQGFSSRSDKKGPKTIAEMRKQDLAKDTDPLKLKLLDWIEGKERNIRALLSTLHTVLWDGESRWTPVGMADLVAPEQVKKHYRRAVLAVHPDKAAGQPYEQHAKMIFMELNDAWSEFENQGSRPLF

[8] = test system: EGFR (human), P00533 [G719S]; test: KINOMEscan competition binding; conditions: compound 10.0 µM
TEK (human) = TEK (human) (UniProt Q02763); test: KINOMEscan competition binding; conditions: compound 10.0 µM
PIM2 (human) [9] = biological target: PIM2 (human) (UniProt Q9P1W9); test: KINOMEscan competition binding; conditions: compound 10.0 µM
DAPK2 (human) = DAPK2 (human) (UniProt Q9UIK4); test: KINOMEscan competition binding; conditions: compound 10.0 µM
Chain of DAPK2 (human) (Q9UIK4 whole entry, looked up): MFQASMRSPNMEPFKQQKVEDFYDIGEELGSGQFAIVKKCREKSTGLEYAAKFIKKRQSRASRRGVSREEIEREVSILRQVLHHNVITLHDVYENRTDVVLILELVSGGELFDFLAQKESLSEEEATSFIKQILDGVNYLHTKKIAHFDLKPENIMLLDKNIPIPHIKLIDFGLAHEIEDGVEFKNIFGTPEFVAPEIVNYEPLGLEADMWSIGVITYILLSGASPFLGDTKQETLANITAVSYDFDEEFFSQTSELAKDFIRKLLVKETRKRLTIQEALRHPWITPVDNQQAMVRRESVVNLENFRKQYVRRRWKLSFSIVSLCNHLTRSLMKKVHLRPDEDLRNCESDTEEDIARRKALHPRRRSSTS

RPS6KA6 KD2 (human) = RPS6KA6 KD2 (human) (UniProt Q9UK32); test: KINOMEscan competition binding; conditions: compound 10.0 µM
Chain of RPS6KA6 KD2 (human) (Q9UK32 whole entry, looked up): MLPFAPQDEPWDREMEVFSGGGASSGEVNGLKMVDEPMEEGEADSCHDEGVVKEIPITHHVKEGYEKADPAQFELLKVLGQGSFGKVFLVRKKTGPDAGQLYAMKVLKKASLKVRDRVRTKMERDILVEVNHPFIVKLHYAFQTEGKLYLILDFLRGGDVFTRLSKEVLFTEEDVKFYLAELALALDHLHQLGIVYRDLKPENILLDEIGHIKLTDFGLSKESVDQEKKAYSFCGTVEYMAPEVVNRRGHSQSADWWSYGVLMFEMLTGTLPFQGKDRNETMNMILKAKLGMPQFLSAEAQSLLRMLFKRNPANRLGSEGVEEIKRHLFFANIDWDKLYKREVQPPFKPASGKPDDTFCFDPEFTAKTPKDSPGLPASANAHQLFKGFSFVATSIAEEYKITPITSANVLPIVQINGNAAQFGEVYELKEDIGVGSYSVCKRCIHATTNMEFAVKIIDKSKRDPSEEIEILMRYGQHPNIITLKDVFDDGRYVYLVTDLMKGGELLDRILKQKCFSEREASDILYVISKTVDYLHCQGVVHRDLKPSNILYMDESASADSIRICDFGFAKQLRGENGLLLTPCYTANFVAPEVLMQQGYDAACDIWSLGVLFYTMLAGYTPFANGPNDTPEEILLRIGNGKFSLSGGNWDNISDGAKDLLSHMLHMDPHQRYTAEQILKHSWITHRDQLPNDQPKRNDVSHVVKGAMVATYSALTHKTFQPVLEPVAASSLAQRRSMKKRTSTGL

[10] = test system: EGFR (human), P00533 [P753S; 747-752 del]; test: KINOMEscan competition binding; conditions: compound 10.0 µM
PIM3 (human) = PIM3 (human) (UniProt Q86V86); test: KINOMEscan competition binding; conditions: compound 10.0 µM
[11] = test system: EGFR (human), P00533 [G719C; 746-750 del]; test: KINOMEscan competition binding; conditions: compound 10.0 µM
[12] = test system: EGFR (human), P00533 [L858R]; test: KINOMEscan competition binding; conditions: compound 10.0 µM
DAPK1 (human) = DAPK1 (human) (UniProt P53355); test: KINOMEscan competition binding; conditions: compound 10.0 µM
[13] = test system: EGFR (human), P00533 [L861Q]; test: KINOMEscan competition binding; conditions: compound 10.0 µM
PIK3C2B (human) = PIK3C2B (human) (UniProt O00750); test: KINOMEscan competition binding; conditions: compound 10.0 µM
MAPK15 (human) = MAPK15 (human) (UniProt Q8TD08); test: KINOMEscan competition binding; conditions: compound 10.0 µM
STK4 (human) = STK4 (human) (UniProt Q13043); test: KINOMEscan competition binding; conditions: compound 10.0 µM
PTK2B (human) = PTK2B (human) (UniProt Q14289); test: KINOMEscan competition binding; conditions: compound 10.0 µM
TNK1 (human) = TNK1 (human) (UniProt Q13470); test: KINOMEscan competition binding; conditions: compound 10.0 µM
PLK3 (human) = PLK3 (human) (UniProt Q9H4B4); test: KINOMEscan competition binding; conditions: compound 10.0 µM
PLK1 (human) = PLK1 (human) (UniProt P53350); test: KINOMEscan competition binding; conditions: compound 10.0 µM
FER (human) = FER (human) (UniProt P16591); test: KINOMEscan competition binding; conditions: compound 10.0 µM
STK33 (human) = STK33 (human) (UniProt Q9BYT3); test: KINOMEscan competition binding; conditions: compound 10.0 µM
PRKD1 (human) = PRKD1 (human) (UniProt Q15139); test: KINOMEscan competition binding; conditions: compound 10.0 µM
PLK4 (human) = PLK4 (human) (UniProt O00444); test: KINOMEscan competition binding; conditions: compound 10.0 µM
DCLK1 (human) = DCLK1 (human) (UniProt O15075); test: KINOMEscan competition binding; conditions: compound 10.0 µM
CSNK1E (human) = CSNK1E (human) (UniProt P49674); test: KINOMEscan competition binding; conditions: compound 10.0 µM
DCLK2 (human) = DCLK2 (human) (UniProt Q8N568); test: KINOMEscan competition binding; conditions: compound 10.0 µM
ALK (human) = ALK (human) (UniProt Q9UM73); test: KINOMEscan competition binding; conditions: compound 10.0 µM
DMPK (human) = DMPK (human) (UniProt Q09013); test: KINOMEscan competition binding; conditions: compound 10.0 µM
TTK (human) = TTK (human) (UniProt P33981); test: KINOMEscan competition binding; conditions: compound 10.0 µM
ROS1 (human) = ROS1 (human) (UniProt P08922); test: KINOMEscan competition binding; conditions: compound 10.0 µM
AKT3 (human) = AKT3 (human) (UniProt Q9Y243); test: KINOMEscan competition binding; conditions: compound 10.0 µM
RPS6KA2 KD2 (human) = RPS6KA2 KD2 (human) (UniProt Q15349); test: KINOMEscan competition binding; conditions: compound 10.0 µM
MYLK (human) = MYLK (human) (UniProt Q15746); test: KINOMEscan competition binding; conditions: compound 10.0 µM
RPS6KA1 KD2 (human) = RPS6KA1 KD2 (human) (UniProt Q15418); test: KINOMEscan competition binding; conditions: compound 10.0 µM
INSRR (human) = INSRR (human) (UniProt P14616); test: KINOMEscan competition binding; conditions: compound 10.0 µM
PTK2 (human) = PTK2 (human) (UniProt Q05397); test: KINOMEscan competition binding; conditions: compound 10.0 µM
ULK2 (human) = ULK2 (human) (UniProt Q8IYT8); test: KINOMEscan competition binding; conditions: compound 10.0 µM
INSR (human) = INSR (human) (UniProt P06213); test: KINOMEscan competition binding; conditions: compound 10.0 µM
Chain of INSR (human) (P06213 whole entry, looked up): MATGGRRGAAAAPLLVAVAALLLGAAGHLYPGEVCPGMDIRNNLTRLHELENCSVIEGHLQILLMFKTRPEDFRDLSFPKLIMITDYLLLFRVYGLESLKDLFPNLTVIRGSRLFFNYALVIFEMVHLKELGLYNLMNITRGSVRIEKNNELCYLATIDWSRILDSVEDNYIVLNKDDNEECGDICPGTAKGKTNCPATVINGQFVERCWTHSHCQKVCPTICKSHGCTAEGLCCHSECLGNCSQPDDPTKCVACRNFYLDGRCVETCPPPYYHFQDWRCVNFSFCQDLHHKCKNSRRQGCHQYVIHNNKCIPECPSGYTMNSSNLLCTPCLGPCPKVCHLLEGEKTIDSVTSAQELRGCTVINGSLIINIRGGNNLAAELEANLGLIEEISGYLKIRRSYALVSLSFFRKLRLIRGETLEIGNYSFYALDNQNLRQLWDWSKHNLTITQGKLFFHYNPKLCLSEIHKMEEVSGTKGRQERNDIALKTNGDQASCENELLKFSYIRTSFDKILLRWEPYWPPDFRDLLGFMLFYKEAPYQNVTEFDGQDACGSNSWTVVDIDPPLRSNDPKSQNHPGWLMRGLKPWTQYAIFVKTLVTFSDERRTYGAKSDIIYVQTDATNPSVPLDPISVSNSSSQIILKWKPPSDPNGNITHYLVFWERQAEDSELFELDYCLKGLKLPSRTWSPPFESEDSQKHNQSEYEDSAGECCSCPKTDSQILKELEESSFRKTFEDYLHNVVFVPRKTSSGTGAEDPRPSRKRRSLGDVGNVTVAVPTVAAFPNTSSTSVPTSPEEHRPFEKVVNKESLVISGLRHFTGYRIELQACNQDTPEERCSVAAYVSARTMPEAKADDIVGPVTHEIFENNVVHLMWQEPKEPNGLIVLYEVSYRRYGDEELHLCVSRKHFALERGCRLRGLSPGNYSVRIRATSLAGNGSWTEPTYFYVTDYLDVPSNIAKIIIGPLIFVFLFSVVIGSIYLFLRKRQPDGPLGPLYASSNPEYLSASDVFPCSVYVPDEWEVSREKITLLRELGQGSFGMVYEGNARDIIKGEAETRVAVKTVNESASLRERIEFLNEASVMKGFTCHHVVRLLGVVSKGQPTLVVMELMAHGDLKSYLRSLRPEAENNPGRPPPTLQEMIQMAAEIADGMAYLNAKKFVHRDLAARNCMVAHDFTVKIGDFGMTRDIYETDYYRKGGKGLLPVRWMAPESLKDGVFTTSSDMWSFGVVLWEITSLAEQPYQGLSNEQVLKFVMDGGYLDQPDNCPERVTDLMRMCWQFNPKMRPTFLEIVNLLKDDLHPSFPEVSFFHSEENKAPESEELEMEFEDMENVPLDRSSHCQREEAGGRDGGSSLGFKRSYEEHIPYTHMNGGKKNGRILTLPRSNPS

Chain of PIM2 (human) (Q9P1W9 whole entry, looked up): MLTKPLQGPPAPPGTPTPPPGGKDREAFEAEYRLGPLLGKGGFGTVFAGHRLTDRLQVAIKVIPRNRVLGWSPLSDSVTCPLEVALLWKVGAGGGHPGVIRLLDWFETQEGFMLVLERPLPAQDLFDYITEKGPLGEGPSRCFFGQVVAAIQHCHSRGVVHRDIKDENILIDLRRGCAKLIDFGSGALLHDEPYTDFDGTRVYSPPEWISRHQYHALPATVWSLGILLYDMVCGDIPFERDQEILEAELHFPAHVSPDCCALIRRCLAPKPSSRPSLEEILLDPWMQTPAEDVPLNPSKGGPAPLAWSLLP
Chain of PIM1 (human) (P11309 whole entry, looked up): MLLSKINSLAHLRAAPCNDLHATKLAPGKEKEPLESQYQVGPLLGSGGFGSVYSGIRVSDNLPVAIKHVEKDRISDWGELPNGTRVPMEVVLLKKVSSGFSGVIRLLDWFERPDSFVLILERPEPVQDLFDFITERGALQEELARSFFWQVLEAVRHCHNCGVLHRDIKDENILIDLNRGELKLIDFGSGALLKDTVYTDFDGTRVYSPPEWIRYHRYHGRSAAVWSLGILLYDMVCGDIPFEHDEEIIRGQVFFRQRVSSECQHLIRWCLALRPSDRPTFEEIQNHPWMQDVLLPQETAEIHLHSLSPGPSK

In the case of `O=C1NC(=O)/C(=C/c2ccc(-c3ccc(F)cc3O)o2)S1`, the IC50 (PIM1 (human) [1]) is reported as 0.094 µM, the IC50 (PIM2 (human) [2]) is reported as 0.158 µM and the kinase still bound, per cent of control [3] is reported as 33%. For the same compound, the kinase still bound, per cent of control (EGFR (human)) was 29%, the kinase still bound, per cent of control (PIK3CG (human)) was 4% and the kinase still bound, per cent of control (RIPK2 (human)) was 32%. For the same compound, the kinase still bound, per cent of control [4] was 9.8%, the kinase still bound, per cent of control (CIT (human)) was 0.2% and the kinase still bound, per cent of control (ACVR2B (human)) was 9.9%. The kinase still bound, per cent of control (TIE1 (human)) was 25%, the kinase still bound, per cent of control [5] was 1.9% and the kinase still bound, per cent of control (HIPK1 (human)) was 5%. It also gave a kinase still bound, per cent of control (AAK1 (human)) of 35%, a kinase still bound, per cent of control (TAOK1 (human)) of 8.4% and a kinase still bound, per cent of control (MYLK4 (human)) of 17%. For the same compound, the kinase still bound, per cent of control (DAPK3 (human)) was 25%, the kinase still bound, per cent of control (CSNK2A1 (human)) was 4.4% and the kinase still bound, per cent of control (PIM1 (human) [6]) was 2.7%. The kinase still bound, per cent of control (PIK3CD (human)) was 27%, the kinase still bound, per cent of control (STK17B (human)) was 3.3% and the kinase still bound, per cent of control (RPS6KA4 KD2 (human)) was 22%. For the same compound, the kinase still bound, per cent of control (STK17A (human)) was 1.5%, the kinase still bound, per cent of control (BMPR2 (human)) was 12% and the kinase still bound, per cent of control [7] was 5.8%. It also gave a kinase still bound, per cent of control (CSNK2A2 (human)) of 4.2%, a kinase still bound, per cent of control (CLK2 (human)) of 27% and a kinase still bound, per cent of control (MYLK3 (human)) of 29%. The kinase still bound, per cent of control (GAK (human)) was 9.3%, the kinase still bound, per cent of control [8] was 19% and the kinase still bound, per cent of control (TEK (human)) was 2.1%. For the same compound, the kinase still bound, per cent of control (PIM2 (human) [9]) was 2%, the kinase still bound, per cent of control (DAPK2 (human)) was 12% and the kinase still bound, per cent of control (RPS6KA6 KD2 (human)) was 18%. It also gave a kinase still bound, per cent of control [10] of 14%, a kinase still bound, per cent of control (PIM3 (human)) of 4.8% and a kinase still bound, per cent of control [11] of 15%. The kinase still bound, per cent of control [12] was 20%, the kinase still bound, per cent of control (DAPK1 (human)) was 10% and the kinase still bound, per cent of control [13] was 28%. For the same compound, the kinase still bound, per cent of control (PIK3C2B (human)) was 19% and the kinase still bound, per cent of control (MAPK15 (human)) was 3.6%.
`COc1cc(N2CCN(CCO)CC2)ccc1Nc1ncc2c(n1)N(C1CCCC1)CCC(=O)N2C` showed a kinase still bound, per cent of control (STK4 (human)) of 0%, a kinase still bound, per cent of control (EGFR (human)) of 29% and a kinase still bound, per cent of control (PTK2B (human)) of 13%. The kinase still bound, per cent of control (TNK1 (human)) was 20%, the kinase still bound, per cent of control [4] was 23% and the kinase still bound, per cent of control (PLK3 (human)) was 12%. For the same compound, the kinase still bound, per cent of control (PLK1 (human)) was 0%, the kinase still bound, per cent of control [5] was 20% and the kinase still bound, per cent of control (FER (human)) was 24%. It also gave a kinase still bound, per cent of control (STK33 (human)) of 7.2%, a kinase still bound, per cent of control (PRKD1 (human)) of 29% and a kinase still bound, per cent of control (PLK4 (human)) of 9.4%. It also gave a kinase still bound, per cent of control (DCLK1 (human)) of 4.2%, a kinase still bound, per cent of control (CSNK1E (human)) of 0% and a kinase still bound, per cent of control (DAPK3 (human)) of 28%. The kinase still bound, per cent of control (DCLK2 (human)) was 14%, the kinase still bound, per cent of control (ALK (human)) was 11% and the kinase still bound, per cent of control (DMPK (human)) was 0%. It also gave a kinase still bound, per cent of control (TTK (human)) of 1.8%, a kinase still bound, per cent of control (ROS1 (human)) of 0% and a kinase still bound, per cent of control (AKT3 (human)) of 0%. For the same compound, the kinase still bound, per cent of control (RPS6KA2 KD2 (human)) was 16%, the kinase still bound, per cent of control (MYLK (human)) was 14% and the kinase still bound, per cent of control [7] was 18%. It also gave a kinase still bound, per cent of control (GAK (human)) of 1.4%, a kinase still bound, per cent of control [8] of 31% and a kinase still bound, per cent of control (DAPK2 (human)) of 32%. The kinase still bound, per cent of control (RPS6KA6 KD2 (human)) was 20%, the kinase still bound, per cent of control (RPS6KA1 KD2 (human)) was 32% and the kinase still bound, per cent of control (INSRR (human)) was 32%. It also gave a kinase still bound, per cent of control [10] of 24%, a kinase still bound, per cent of control [11] of 28% and a kinase still bound, per cent of control [12] of 31%. For the same compound, the kinase still bound, per cent of control (PTK2 (human)) was 3.4%, the kinase still bound, per cent of control (ULK2 (human)) was 2% and the kinase still bound, per cent of control (INSR (human)) was 30%.
